{"source": "patent US20110269790A1", "about": "“NOVEL THIENOPYRIDINES AS PHARMACOLOGICALLY ACTIVE AGENTS” (priority 2009, published 2011)", "key": {"Wistar rats": {"test_system": "Wistar rats", "experiment": "Carrageenan induced paw edema model", "assay_type": "in vivo, rat", "settings": "for change in vivo at 100 mg/kg / inhibition in vivo at 100 mg/kg: Rattus norvegicus; for change in vivo at 100 mg/kg: read-out: % Increase in Paw Volume; for inhibition in vivo at 100 mg/kg: read-out: % Inhibition (paw volume)"}, "[1]": {"test_system": "A431 (Skin cancer) cell lines", "experiment": "MTT assay, A431", "assay_type": "cell-based", "settings": "for IC50: Homo sapiens, read-out: A431 cell lines IC50", "protocol": "A431 (Skin cancer), Colo-205 (Colon cancer), A549 (Lung cancer) cell lines were obtained from National Center for Cell science (NCCS), Pune, India. DMEM (Dulbeccos Modified Eagles Medium), MTT [3-(4,5-dimethylthiazol-2-yl)-2,5-diphenyl tetrazolium bromide], Trypsin, EDTA were purchased from Sigma Chemicals Co (St. Louis, Mo.), Fetal bovine serum were purchased from Arrow labs, 96 well flat bottom tissue culture plates were purchased from Tarson.\nA431, Colo-205, A549 cell lines were grown as adherent cells in DMEM media supplemented with 10% fetal bovine serum, 100 μg/ml penicillin, 200 μg/ml streptomycin, 2 mM L-glutamine, and culture was maintained in a humidified atmosphere with 5% CO2. Stock solution of 10 mg/ml was prepared for test molecules in DMSO. From the stock, various dilutions were made with sterile water to get required concentration. A431, Colo-205, A549 cell lines were seeded at a density of 1×10^4 cells (cell number was determined by Trypan blue exclusion dye method) per each well in 100 μl of DMEM supplemented with 10% FBS. 12 hrs after seeding, above media was replaced with fresh DMEM supplemented with 10% FBS. Then, 10 μl sample from above stock solutions were added to each well in triplicates which gives final concentration of 100, 50, 25, 10 μg/well. The above cells were incubated for 48 hrs at 37° C. with 5% CO2. After 48 hrs incubation the above media was replaced with 100 μl of fresh DMEM with out FBS and to this 10 μl of MTT (5 mg dissolved in 1 ml of PBS) was added and incubated for 3 hrs at 37° C. with 5% CO2. After 3 hrs of incubation, the above media was removed with multi channel pipette, then 200 μl of DMSO was added to each well and incubated at 37° C. for 15 min. Finally, the plate was read at 570 nm using spectrophotometer (Spectra Max, Molecular devices)."}, "mice": {"test_system": "mice", "experiment": "Adenosine mediated bronchoconstriction and lung inflammation in an allergic mouse model", "assay_type": "in vivo", "set-up": "Total count: unit not given here", "settings": "BAL fluid cells; 100 mg/kg oral", "how_it_was_run": "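Male mice sensitized i.p. with ragweed (days 1, 6), challenged with 0.5% ragweed aerosol twice daily for 3 days; 24 h later dosed orally (acacia suspension; theophylline 100 mg/kg), then challenged with adenosine (24 mg/ml) 2 h post-dose. Respiration recorded by kymograph under pentobarbitone; BAL total and differential cell counts.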"}, "[2]": {"settings": "test compounds 100 mg/kg oral, Indomethacin 10 mg/kg oral, 3 hrs after Carrageenan"}}, "note": "Read-outs that look alike come from different tables or passages of the source.", "data": [{"molecule": "Cc1sc2nc3c(c(N)c2c1C)CCC3", "note": "[BN-1, 2,3-dimethyl-6,7-dihydro-5H-cyclopenta[b]thieno[3,2-e]pyridin-4-amine]", "values": [{"measurement": "change in vivo at 100 mg/kg", "setting": "Wistar rats; [2]", "value": "87.9 ± 2.78", "unit": "%"}, {"measurement": "inhibition in vivo at 100 mg/kg", "setting": "Wistar rats; [2]", "value": "24.7 ± 5.49", "unit": "%"}, {"measurement": "IC50", "setting": "[1]; A-431, MTT, 48 hrs", "value": 45.7, "unit": "µg/mL"}, {"measurement": "Differential count (%) Eosinophils", "setting": "mice", "value": 12, "unit": "%"}, {"measurement": "Differential count (%) Lymphocytes", "setting": "mice", "value": 65, "unit": "%"}, {"measurement": "Differential count (%) Monocytes", "setting": "mice", "value": 20, "unit": "%"}, {"measurement": "Total count", "setting": "mice", "value": 12}, {"measurement": "melting point", "value": 231, "unit": "°C"}]}, {"molecule": "Nc1c2c(nc3sc4c(c13)CCC4)CCC2", "note": "[BN-13, 1,2,3,6,7,8-hexahydrocyclopenta [b]cyclopenta[4,5] thieno[3,2-e]pyridin-9-amine]", "values": [{"measurement": "change in vivo at 100 mg/kg", "setting": "Wistar rats; po, 3 h", "value": "91.7 ± 25.7", "unit": "%"}, {"measurement": "inhibition in vivo at 100 mg/kg", "setting": "Wistar rats; po, 3 h", "value": "12.3 ± 1.95", "unit": "%"}, {"measurement": "IC50", "setting": "[1]; A-431, 48 h", "value": 50.1, "unit": "µg/mL"}, {"measurement": "Differential count (%) Eosinophils", "setting": "mice", "value": 20, "unit": "%"}, {"measurement": "Differential count (%) Lymphocytes", "setting": "mice", "value": 74, "unit": "%"}, {"measurement": "Differential count (%) Monocytes", "setting": "mice", "value": 16.5, "unit": "%"}, {"measurement": "Total count", "setting": "mice", "value": 8}, {"measurement": "melting point", "value": 245, "unit": "°C"}]}, {"molecule": "CC1CCc2c(nc3sc4c(c3c2N)CCC4)C1", "note": "(stereo not shown) [BN-15, 7-Methyl-2,3,6,7,8,9-hexahydro-1H-cyclopenta[4,5]thieno[2,3-b]quinolin-10-amine]", "values": [{"measurement": "change in vivo at 100 mg/kg", "setting": "Wistar rats; [2]", "value": "86.5 ± 17.1", "unit": "%"}, {"measurement": "inhibition in vivo at 100 mg/kg", "setting": "Wistar rats; [2]", "value": "23.5 ± 8.98", "unit": "%"}, {"measurement": "IC50", "setting": "[1]; A-431, MTT, 48 hrs", "value": 40.7, "unit": "µg/mL"}, {"measurement": "Differential count (%) Eosinophils", "setting": "mice", "value": 10, "unit": "%"}, {"measurement": "Differential count (%) Lymphocytes", "setting": "mice", "value": 63.5, "unit": "%"}, {"measurement": "Differential count (%) Monocytes", "setting": "mice", "value": 16.5, "unit": "%"}, {"measurement": "Total count", "setting": "mice", "value": 13}, {"measurement": "melting point", "value": 263.2, "unit": "°C"}]}, {"molecule": "Nc1c2c(nc3sc4c(c13)CCC4)CCCCCC2", "note": "[BN-17, 2,3,6,7,8,9,10,11-Octahydro-1H-cycloocta [b]cyclopenta[4,5]thieno[3,2-e]pyridin-12-amine]", "values": [{"measurement": "% Increase in Paw Volume", "setting": "Wistar rats; [2]", "value": "76.85 ± 6.45", "unit": "%"}, {"measurement": "% Inhibition (paw volume)", "setting": "Wistar rats; [2]", "value": "6.87 ± 4.76", "unit": "%"}, {"measurement": "A431 cell lines IC50", "setting": "[1]; MTT, 48 hrs", "value": 32.35, "unit": "µg/mL"}, {"measurement": "Differential count (%) Eosinophils", "setting": "mice", "value": 25, "unit": "%"}, {"measurement": "Differential count (%) Lymphocytes", "setting": "mice", "value": 75, "unit": "%"}, {"measurement": "Differential count (%) Monocytes", "setting": "mice", "value": 9, "unit": "%"}, {"measurement": "Total count", "setting": "mice", "value": 9}, {"measurement": "melting point", "value": 256, "unit": "°C"}]}, {"molecule": "Nc1c2c(nc3sc4c(c13)CCCCC4)CCC2", "note": "[BN-18, 1,2,3,6,7,8,9,10-Octahydrocyclohepta[4,5] thieno[2,3-b]cyclopenta [e]pyridin-11-amine]", "values": [{"measurement": "change in vivo at 100 mg/kg", "setting": "Wistar rats; [2]", "value": "62.8 ± 2", "unit": "%"}, {"measurement": "inhibition in vivo at 100 mg/kg", "setting": "Wistar rats; [2]", "value": "17.4 ± 0.27", "unit": "%"}, {"measurement": "IC50", "setting": "[1]; A-431, MTT, 48 hrs", "value": 53.7, "unit": "µg/mL"}, {"measurement": "Differential count (%) Eosinophils", "setting": "mice", "value": 20, "unit": "%"}, {"measurement": "Differential count (%) Lymphocytes", "setting": "mice", "value": 70, "unit": "%"}, {"measurement": "Differential count (%) Monocytes", "setting": "mice", "value": 15, "unit": "%"}, {"measurement": "Total count", "setting": "mice", "value": 18}, {"measurement": "melting point", "value": 255, "unit": "°C"}]}]}
